Measured values: EP0073505B1, “Benzo-heterocycles” (priority 1981, dated 1983)

System: Meerschweinchen
Assay: Heart rate increase in the guinea pig, i.v.
Assay type: in vivo
Settings: selectivity Broncholyse vs. Herzfrequenzsteigerung
Text: Für die pharmakologischen Prüfungen werden die üblichen Testmethoden und Versuchstiere oder Organe verwendet. Pharmakologisch sind die erfindungsgemässen Verbindungen gegenüber Handelsprodukten der gleichen Indikation zum Teil sehr deutlich unterschieden. Neben einer guten Wirkungsdauer zeigt sich z.B. eine besonders deutliche Selektivität im Verhältnis Broncholyse zu Herzfrequenzsteigerung. So ist z. […] Günstig sind im allgemeinen auch die Resorptionsverhältnisse. So ist der Resorptionsquotient [formula] z.B. für die Verbindung 7 der Tabelle 3 nur 1,1, so dass die orale Wirkung praktisch ebenso gross ist wie die intravenöse. Die LD50-Werte liegen, z.B. an der Maus, so weit über der therapeutischen Dosis, dass eine günstige therapeutische Breite gegeben ist.

In the case of `CC[C@H](NC(C)C)[C@H](O)c1ccc(O)c2c1OCC(=O)N2` (relative stereo) [Beispiel 1], the “ED50 i.v. der Herzfrequenzsteigerung relative to ED50 i.v. der Broncholyse” value was “mehr als zehnmal so gross”.
